For data set [1], the system named is NCI-H460 human non-small cell lung carcinoma. The data set can be described thus: NCI-H460 xenograft model. The format is in vivo. From the text:
NCI-H460 is a human non-small cell lung carcinoma derived cell line. It is MDR negative, has wild type p53, and contains an oncogenic K-ras mutation.

Data set [2] can be described thus: dose limiting toxicity in cancer subjects, single dose and 5-day repeated dose. The class given is in vivo, human. How it is done:
(§1) (2-((4-hydroxyphenyl)amino)pyrid-3-yl)-4-methoxybenzenesulfonamide was evaluated in 57 cancer subjects in single dose (16 subjects) and 5-day repeated dose regimens (41 subjects). The doses administered in the single dose segment were 80 to 480 mg/m^2/day. In the 5-day repeated dose regimen (2-((4-hydroxyphenyl)amino)pyrid-3-yl)-4-methoxybenzenesulfonamide was given at 30 to 240 mg/m^2/day for a single cycle. […] Adverse drug reactions from the single dose and 5-day repeated dose segments included nausea and vomiting, diarrhea, epigastric pain, ileus and evidence of peripheral neuropathy. For the single dose segment, the dose limiting toxicity (DLT) was Grade 3 peripheral neuropathy in 1 of 5 subjects at 480 mg/m^2/day. In the 5-day repeated dose regimen the dose limiting toxicities were Grade 3 peripheral neuropathy in 1 of 4 subjects at 210 mg/m^2/day and Grade 4 intestinal paralysis in 1 of 4 subjects at 210 mg/m^2/day and in 1 of 6 subjects at 240 mg/m^2/day.

The test system of a further data set is LC-6 lung cancer. In words: human tumor xenograft in nude mice, LC-6. The format is in vivo. As to conditions: Q5D × 5, 450 mg/kg/day. On the technique in general: In xenograft studies the graft and the host belong to different species.
Another data set deals with LC-376 lung cancer. In words: human tumor xenograft in nude mice, LC-376. The class given is in vivo. As to conditions: Q5D × 5, 300 mg/kg/day.
The next data set has as its system H-154 gastric cancer. The data set can be described thus: human tumor xenograft in nude mice, H-154. The format is in vivo. Particulars: Q5D × 5, 300 mg/kg/day.
Another data set has as its system H-143 colorectal cancer. The data set can be described thus: human tumor xenograft in nude mice, H-143. The format is in vivo. Particulars: Q5D × 5, 300 mg/kg/day.
Data set [3] concerns intestinal tumors of Apc^Min (Min) mice. The data set can be described thus: Apc Min mice spontaneous intestinal tumorigenesis model. The format is in vivo. Particulars: orally once-a-day for 28 days at 150 mg/kg/day; vehicle controls 73.3. From the text:
Apc^Min (Min) mice are models for genetically inherited intestinal cancer. These mice carry a dominant germline mutation in the Apc tumor suppressor gene that predisposes them to the development of numerous (>50) tumors throughout the intestinal tract.
The average tumor number for treated mice was 49.8 compared to 73.3 for vehicle controls. Drug treatment was initiated at an age when the tumors were well-established.

The subject of a further data set is HT-29 colon carcinoma. In words: HT-29 colon flank xenograft model (staged). The format is in vivo, human. How it is done:
Following inoculation of tumor cells, tumors were passaged three times in mice before using the fragments to generate single cell suspensions. Multiple animals were used as donors. Single cell suspensions were generated by homogenizing the minced tumor tissue in RPMI 1640 media. Cell suspensions were washed three times to remove debris and other foreign materials. Viable cells were counted by trypan blue exclusion technique using a hemocytometer. Mice were injected subcutaneously with 0.5 mL of the cell suspension containing 1×10^6 cells.
On day 10, mice bearing established tumors were size matched and grouped at about 236 mm^3.

For another data set, the system named is H-111 gastric cancer. In words: human tumor xenograft in nude mice, H-111. The class given is in vivo. Particulars: Q1D × 19, 80 mg/kg/day.
Data set [4] in a line: pharmacokinetics in cancer subjects, single dose and 5-day repeated dose. The class given is in vivo, human. How it is done:
as §1

For the next data set, the system named is LX-1 lung cancer. The data set can be described thus: human tumor xenograft in nude mice, LX-1. The class given is in vivo. Particulars: Q1D × 20, 120 mg/kg/day.
Another data set concerns WiDr colorectal cancer. In words: human tumor xenograft in nude mice, WiDr. The class given is in vivo. Particulars: Q1D × 20, 100 mg/kg/day.
Setting [5] is: 5-day repeated dose, 210 mg/m^2/day.
The mark [6] stands for this setting: oral 75 mg/kg/d QD, d 10-14, 20-24.

As for `COc1ccc(S(=O)(=O)Nc2cccnc2Nc2ccc(O)cc2)cc1` [ABT-751, N-(2-((4-hydroxyphenyl)amino)pyrid-3-yl)-4-methoxybenzenesulfonamide], the “T/C, mean tumor volume” value in [1] (day 13) is recorded as 58%. Also, the “ILS (delay in tumor growth)” value in data set [1] (in vivo) was found to be 32%. In addition, the “efficacy in the NCI-H460 xenograft model” value in data set [1] (in words) is recorded as “good efficacy”. The “dose limiting toxicity: Grade 3 peripheral neuropathy, subjects affected” value in data set [2] (setting [5]) was 1 of 4; in data set [2] (single dose, 480 mg/m^2/day), 1 of 5. For the same molecule, the “dose limiting toxicity: Grade 4 intestinal paralysis, subjects affected” value in data set [2] (setting [5]) is recorded as 1 of 4; in data set [2] (5-day repeated dose, 240 mg/m^2/day) it was 1 of 6. In addition, the “T/C (%)” value with LC-6 lung cancer worked out at 31%; with LC-376 lung cancer it was 18%; in the data set on H-154 gastric cancer it was 71%; with H-143 colorectal cancer it was 17%; in the data set on H-111 gastric cancer, 36%; in the data set on LX-1 lung cancer, 37%. Further, the “T/C (%)” value with WiDr colorectal cancer is 22%. Moreover, the average tumor number in [3] was 49.8. The “antitumor activity as single agent” value in the data set on HT-29 colon carcinoma (100 and 75 mg/kg/day, (5 days on/5 days off)×2) is on record as “significant antitumor activity”. Besides, the “response in combination with 5-fluorouracil” value with HT-29 colon carcinoma (in combination with 5-fluorouracil at 30 mg/kg/day, higher doses) is on record as “additive responses”. Further, the “% T/C” value in the data set with HT-29 colon carcinoma (oral 50 mg/kg/d QD, d 1-21) was determined as 55%; in the data set with HT-29 colon carcinoma (setting [6]), 43%; in the data set with HT-29 colon carcinoma (oral 100 mg/kg/d QD, d 10-14, 20-24) it was 28%. Also, the “% ILS” value in the data set on HT-29 colon carcinoma (setting [6]) was found to be 50%. In addition, in data set [4] (human, plasma, cancer subjects, single dose and 5-day repeated dose, read-out: elimination half-life), the half-life – broadly, the time needed for the level to fall by half in the phase considered – lay within 4 to 16 h. The AUC versus dose entry in data set [4] (range of 30 to 480 mg/m^2/day) is listed as “increased proportionally with dose”.

For the origin of these results see US20050267166A1, “Continuous dosing regimen” (priority 2004, published 2005).
